In patent publication US20230174468A1, “SULFATED PILLARARENES, METHODS OF MAKING SAME, AND USES THEREOF” (priority 2007, published 2023):
Where two headings read alike, the source gives them in different places.

How the values were obtained:
[1] = M2.cis complex, previous work; cited from earlier work
[2] = TA98, +S9, positive control compounds
[3] = TA98, −S9, positive control compounds
[4] = TA100, +S9, positive control compounds
[5] = TA100, −S9, positive control compounds
[6] = TA1535, +S9, positive control compounds
[7] = TA1535, −S9, positive control compounds
[8] = TA1537, +S9, positive control compounds
[9] = TA1537, −S9, positive control compounds

| SMILES | number of positive wells (TA98; [2]) | significance of positive wells vs control (Fisher's exact test) (TA98; [2]) | number of positive wells (TA98; [3]) | significance of positive wells vs control (Fisher's exact test) (TA98; [3]) | number of positive wells (TA100; [4]) | significance of positive wells vs control (Fisher's exact test) (TA100; [4]) | number of positive wells (TA100; [5]) | significance of positive wells vs control (Fisher's exact test) (TA100; [5]) | number of positive wells (TA1535; [6]) | significance of positive wells vs control (Fisher's exact test) (TA1535; [6]) | number of positive wells (TA1535; [7]) | significance of positive wells vs control (Fisher's exact test) (TA1535; [7]) | number of positive wells (TA1537; [8]) | significance of positive wells vs control (Fisher's exact test) (TA1537; [8]) | number of positive wells (TA1537; [9]) | significance of positive wells vs control (Fisher's exact test) (TA1537; [9]) | Ka [1] |
| --- | --- | --- | --- | --- | --- | --- | --- | --- | --- | --- | --- | --- | --- | --- | --- | --- | --- |
| Nc1ccc2cc3ccccc3cc2c1 [Host 2-AA, 2-aminoanthracene] | 13/48 | +++ (p<0.001 (very strong positive, +++)) | 0/48 | − (p >0.05 (negative, −)) | 11/48 | + (0.01<p<0.05 (weak positive, +)) | 0/48 | − (p >0.05 (negative, −)) | 9/48 | ++ (0.001<p <0.01 (strong positive, ++)) | 0/48 | − (p >0.05 (negative, −)) | 6/48 | + (0.01<p<0.05 (weak positive, +)) | 0/48 | − (p >0.05 (negative, −)) |  |
| O=c1c(O)c(-c2ccc(O)c(O)c2)oc2cc(O)cc(O)c12 [Quercetin] | 10/48 | +++ (p<0.001 (very strong positive, +++)) | 5/48 | + (0.01<p<0.05 (weak positive, +)) | 5/48 | − (p >0.05 (negative, −)) | 0/48 | − (p >0.05 (negative, −)) | 0/48 | − (p >0.05 (negative, −)) | 1/48 | − (p >0.05 (negative, −)) | 5/48 | + (0.01<p<0.05 (weak positive, +)) | 1/48 | − (p >0.05 (negative, −)) |  |
| CN(N=O)C(=O)N[C@H]1C(O)O[C@H](CO)[C@@H](O)[C@@H]1O (mixture of isomers) [Streptozotocin] | 0/48 | − (p >0.05 (negative, −)) | 0/48 | − (p >0.05 (negative, −)) | 7/48 | − (p >0.05 (negative, −)) | 5/48 | + (0.01<p<0.05 (weak positive, +)) | 24/48 | +++ (p<0.001 (very strong positive, +++)) | 16/48 | +++ (p<0.001 (very strong positive, +++)) | 1/48 | − (p >0.05 (negative, −)) | 1/48 | − (p >0.05 (negative, −)) |  |
| Nc1c2ccccc2nc2ccccc12 [Host 9-AA, 9-aminoacridine] | 0/48 | − (p >0.05 (negative, −)) | 0/48 | − (p >0.05 (negative, −)) | 2/48 | − (p >0.05 (negative, −)) | 0/48 | − (p >0.05 (negative, −)) | 0/48 | − (p >0.05 (negative, −)) | 0/48 | − (p >0.05 (negative, −)) | 24/48 | +++ (p<0.001 (very strong positive, +++)) | 24/48 | +++ (p<0.001 (very strong positive, +++)) |  |
| C[C@]12N3Cc4c(c(OCCCS(=O)(=O)[O-])c5ccccc5c4OCCCS(=O)(=O)[O-])CN1C(=O)N1CN4C(=O)N5CN6C(=O)N7CN8C(=O)N9Cc%10c(c(OCCCS(=O)(=O)[O-])c%11ccccc%11c%10OCCCS(=O)(=O)[O-])CN%10C(=O)N(CN%11C(=O)N(CN%12C(=O)N(CN(C3=O)[C@]12C)[C@@H]4[C@H]%125)[C@@H]6[C@H]%117)[C@]8(C)[C@@]9%10C.[Na+].[Na+].[Na+].[Na+] [Host M2] |  |  |  |  |  |  |  |  |  |  |  |  |  |  |  |  | 4.8e+06 M⁻¹ |
